Results published in patent publication US9840498B2, “Substituted quinazolin-4-one derivatives” (NOVARTIS AG, priority 2013, dated 2017).

Tests used:
[1] = biological target: human phosphoinositide-3 kinase (PI3K) alpha (Homo sapiens (Human), UniProt P42336); assay: PI3K-mediated Akt 1/2 (S473) phosphorylation in Rat-1 cells overexpressing PI3K alpha; assay type: cell-based, rat cells expressing human PI3K alpha; conditions: cellular assay, p-AKT(Ser473), read-out: Cell PI3K alpha IC50
Protocol: (§1) 2.1 Phosphoinositide-3 kinase (PI3K)-Mediated Akt 1/2 (S473) Phosphorylation in Rat-1 Cells
(§2) Rat-1 cells stably overexpressing a myristoylated form of the catalytic subunit of human phosphoinositide-3 kinase (PI3K) alpha, beta or delta were plated in 384-well plates at a density of 7500 (PI3K alpha), 6200 (PI3K beta), or 4000 (PI3K delta) cells in 30 ul complete growth medium (Dulbecco's modified Eagle's medium (DMEM high glucose) supplemented with 10% (v/v) fetal bovine serum, 1% (v/v) MEM non essential amino acids, 10 mM HEPES, 2 mM L-glutamine, 10 μg/mL puromycin and 1% (v/v) Penicillin/Streptomycin) and were incubated at […]/5% CO2/95% humidity for 24 h. Compounds were diluted in 384-well compound plates (compound master plates), to obtain 8-point serial dilutions for 40 test compounds in 90% DMSO, as well as 4 reference compounds plus 16 high controls and 16 low (inhibited) controls. Predilution plates were prepared by dispensing pipetting 250 nl of compound solutions into 384-well polypropylen plates (daugther plates), using a Hummingwell nanoliter dispenser. Compounds were prediluted by the addition of 49.75 ul complete growth medium. 10 ul of prediluted compound solution were transferred to the cell plate using a 384-well pipettor, resulting in a final DMSO concentration of 0.11%. Cells were incubated for 1 h at […]/5% CO2/95% humidity. The supernatant was removed, the cells were lysed in 20 ul of lysis buffer for AlphaScreen® SureFire® detection.
(§3) For detection of p-AKT(Ser473), the SureFire® p-Akt 1/2 (Ser473) Assay Kit (PerkinElmer, U.S.A.) was used. 5 ul of cell lysate was transferred to 384-well low volume Proxiplates for detection using a 384-well pipettor. Addition of AlphaScreen® SureFire® reagents was done according to the manufacturer's protocol. First, 5 ul of reaction buffer plus activation buffer mix containing AlphaScreen® acceptor beads was added, the plate was sealed, and incubated on a plate shaker for 2 hours at room temperature. Second, 2 ul of dilution buffer containing AlphaScreen® donor beads was added, and the plate was incubated on plate shaker as above for a further 2 hours. The plate was read on an AlphaScreen® compatible plate reader, using standard AlphaScreen® settings. Alternatively, p-AKT(Ser473) was detected with the CisBio HTRF Assay Kit: As positive control, 0.9 mM of 1-(3-(trifluoromethyl)-4-(piperazin-1-yl)phenyl)-8-(6-methoxypyridin-3-yl)-3-methyl-1H-imidazo[4,5-c]quinolin-2(3H)-one maleic acid salt in 90% (v/v) DMSO was added to the compound master plate. For compound testing, the cells were seeded at a density of 4000 (Rat-1_PI3Kdelta), 8000 (Rat-1_PI3Kalpha), or 6500 (Rat-1_PI3Kbeta) cells in 30 ul complete growth medium into 384-well plates, with a plastic surface promoting the adhesion of cells and their growth (assay plates) and were grown at 37° C./5% CO2/90% humidity for 24 h. Some 10 ul of the compound predilutions from the daughter plate were then transferred to the cells. After treatment with compound for 1 h, medium was removed and cells were lysed by the addition of 20 ul lysis buffer supplemented with blocking buffer. Detection of p-AKT(Ser473) was performed with the HTRF pAKT (Ser473) assay kit according to the manufacturer's instructions using 16 ul of cell lysate in a total detection volume of 20 ul.

[2] = biological target: human phosphoinositide-3 kinase (PI3K) delta (Homo sapiens (Human), UniProt O00329); assay: PI3K-mediated Akt 1/2 (S473) phosphorylation in Rat-1 cells overexpressing PI3K delta; assay type: cell-based; conditions: cellular assay, p-AKT(Ser473), read-out: Cell PI3K delta IC50
Chain of human phosphoinositide-3 kinase (PI3K) delta (O00329 whole entry): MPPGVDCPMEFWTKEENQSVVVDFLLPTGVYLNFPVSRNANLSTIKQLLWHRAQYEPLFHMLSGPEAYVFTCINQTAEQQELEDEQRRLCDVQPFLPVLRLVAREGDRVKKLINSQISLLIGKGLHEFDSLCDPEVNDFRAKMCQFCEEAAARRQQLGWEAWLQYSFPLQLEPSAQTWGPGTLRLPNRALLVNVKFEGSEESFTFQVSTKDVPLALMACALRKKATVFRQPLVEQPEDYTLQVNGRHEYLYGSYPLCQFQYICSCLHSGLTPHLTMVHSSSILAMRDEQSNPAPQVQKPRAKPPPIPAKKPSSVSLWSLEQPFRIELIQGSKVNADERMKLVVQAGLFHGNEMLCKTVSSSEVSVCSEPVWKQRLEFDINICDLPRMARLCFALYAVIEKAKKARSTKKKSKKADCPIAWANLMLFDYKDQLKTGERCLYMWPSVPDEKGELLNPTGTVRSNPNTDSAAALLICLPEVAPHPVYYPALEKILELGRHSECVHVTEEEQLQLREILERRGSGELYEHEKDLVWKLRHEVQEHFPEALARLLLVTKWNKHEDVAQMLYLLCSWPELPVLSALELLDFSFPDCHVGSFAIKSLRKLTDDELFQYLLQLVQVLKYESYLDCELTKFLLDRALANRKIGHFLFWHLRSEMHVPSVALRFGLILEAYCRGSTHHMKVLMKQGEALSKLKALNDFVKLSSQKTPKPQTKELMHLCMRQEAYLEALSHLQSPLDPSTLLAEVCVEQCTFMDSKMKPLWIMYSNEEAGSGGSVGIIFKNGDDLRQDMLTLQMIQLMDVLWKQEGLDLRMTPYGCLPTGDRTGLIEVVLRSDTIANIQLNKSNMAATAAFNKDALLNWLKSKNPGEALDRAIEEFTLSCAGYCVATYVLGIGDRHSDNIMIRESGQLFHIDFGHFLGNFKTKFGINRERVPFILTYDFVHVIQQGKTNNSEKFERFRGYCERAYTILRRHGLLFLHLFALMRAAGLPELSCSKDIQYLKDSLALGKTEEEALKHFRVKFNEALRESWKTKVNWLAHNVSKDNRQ
Chain of human phosphoinositide-3 kinase (PI3K) delta (Q63787 whole entry partner): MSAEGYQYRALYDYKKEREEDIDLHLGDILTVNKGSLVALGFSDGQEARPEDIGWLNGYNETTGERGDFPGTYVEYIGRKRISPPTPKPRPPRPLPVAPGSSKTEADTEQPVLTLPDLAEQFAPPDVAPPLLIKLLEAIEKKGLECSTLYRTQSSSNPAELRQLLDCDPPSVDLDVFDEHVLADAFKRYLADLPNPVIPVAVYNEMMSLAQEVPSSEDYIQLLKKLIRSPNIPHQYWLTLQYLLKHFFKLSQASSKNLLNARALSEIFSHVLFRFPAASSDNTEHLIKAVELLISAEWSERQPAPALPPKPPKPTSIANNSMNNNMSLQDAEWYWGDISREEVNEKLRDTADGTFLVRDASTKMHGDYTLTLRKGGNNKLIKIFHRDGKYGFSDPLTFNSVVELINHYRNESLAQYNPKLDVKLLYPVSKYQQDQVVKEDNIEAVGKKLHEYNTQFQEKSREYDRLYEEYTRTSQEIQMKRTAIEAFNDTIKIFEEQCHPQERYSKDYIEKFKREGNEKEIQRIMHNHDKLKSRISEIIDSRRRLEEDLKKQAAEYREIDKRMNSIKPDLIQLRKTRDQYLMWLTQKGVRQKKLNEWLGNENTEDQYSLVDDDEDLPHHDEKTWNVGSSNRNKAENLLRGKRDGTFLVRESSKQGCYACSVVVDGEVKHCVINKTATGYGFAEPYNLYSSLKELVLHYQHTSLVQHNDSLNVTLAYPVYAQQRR
Protocol: as §1, §2, §3

Chain of human phosphoinositide-3 kinase (PI3K) alpha (P42336 whole entry): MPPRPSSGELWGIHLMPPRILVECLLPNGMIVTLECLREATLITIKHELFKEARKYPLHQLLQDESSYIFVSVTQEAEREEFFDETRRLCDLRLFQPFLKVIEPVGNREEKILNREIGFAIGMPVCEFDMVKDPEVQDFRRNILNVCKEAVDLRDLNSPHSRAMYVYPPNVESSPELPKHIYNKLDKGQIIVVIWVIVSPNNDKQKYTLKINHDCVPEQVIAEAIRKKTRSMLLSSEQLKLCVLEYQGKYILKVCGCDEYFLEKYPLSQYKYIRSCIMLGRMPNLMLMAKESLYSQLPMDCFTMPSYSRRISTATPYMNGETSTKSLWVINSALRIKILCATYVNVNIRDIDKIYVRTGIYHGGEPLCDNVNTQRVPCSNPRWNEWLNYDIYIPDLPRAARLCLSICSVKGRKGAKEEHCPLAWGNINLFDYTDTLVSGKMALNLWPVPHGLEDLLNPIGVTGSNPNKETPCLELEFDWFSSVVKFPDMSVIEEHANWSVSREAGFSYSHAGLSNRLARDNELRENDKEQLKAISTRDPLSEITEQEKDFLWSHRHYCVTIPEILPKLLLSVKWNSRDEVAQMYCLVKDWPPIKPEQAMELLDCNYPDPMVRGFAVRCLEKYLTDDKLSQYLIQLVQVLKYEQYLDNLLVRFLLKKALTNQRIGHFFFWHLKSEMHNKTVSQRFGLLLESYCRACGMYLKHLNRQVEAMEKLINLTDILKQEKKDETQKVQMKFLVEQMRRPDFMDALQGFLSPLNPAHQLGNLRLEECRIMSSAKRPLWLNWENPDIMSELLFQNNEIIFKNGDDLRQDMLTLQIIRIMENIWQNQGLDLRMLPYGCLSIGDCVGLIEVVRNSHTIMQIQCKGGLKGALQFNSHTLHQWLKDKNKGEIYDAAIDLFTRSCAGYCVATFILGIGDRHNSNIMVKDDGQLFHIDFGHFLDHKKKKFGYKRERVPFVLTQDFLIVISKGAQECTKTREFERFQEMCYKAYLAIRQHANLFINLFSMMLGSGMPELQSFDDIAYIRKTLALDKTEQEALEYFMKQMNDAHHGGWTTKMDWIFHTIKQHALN
Chain of human phosphoinositide-3 kinase (PI3K) alpha (Q63787 whole entry partner): as the sequence (Q63787 whole entry partner) above

Structure (SMILES)	IC50 [1]	IC50 [2]
COc1cncc(-c2cccc3nc([C@@H]4C[C@H](O)CN4c4nc(N)nc(C)c4C#N)n(-c4ccccc4)c(=O)c23)c1 [Example 25, 2-Amino-4-((2S,4S)-4-hydroxy-2-(5-(5-methoxypyridin-3-yl)-4-oxo-3-phenyl-3,4-dihydroquinazolin-2-yl)pyrrolidin-1-yl)-6-methylpyrimidine-5-carbonitrile]	1900 nM	4 nM
Cc1nc(N)nc(N2C[C@@H](O)C[C@H]2c2nc3cccc(-c4cncnc4)c3c(=O)n2-c2ccccc2)c1C#N [Example 26, 2-Amino-4-((2S,4S)-4-hydroxy-2-(4-oxo-3-phenyl-5-(pyrimidin-5-yl)-3,4-dihydroquinazolin-2-yl)pyrrolidin-1-yl)-6-methylpyrimidine-5-carbonitrile]	> 6500 nM	7 nM
CCOc1ncc(-c2c(F)ccc3nc([C@@H]4C[C@H](O)CN4c4nc(N)nc(C)c4C#N)n(-c4ccccc4)c(=O)c23)cn1 [Example 29, 2-Amino-4-((2S,4S)-2-(5-(2-ethoxypyrimidin-5-yl)-6-fluoro-4-oxo-3-phenyl-3,4-dihydroquinazolin-2-yl)-4-hydroxypyrrolidin-1-yl)-6-methylpyrimidine-5-carbonitrile]	2700 nM	6 nM
Cc1nc(N)nc(N2C[C@@H](F)C[C@H]2c2nc3cccc(-c4cnn(C)c4)c3c(=O)n2-c2ccccc2)c1C#N [Example 30, 2-Amino-4-((2S,4S)-4-fluoro-2-(5-(1-methyl-1H-pyrazol-4-yl)-4-oxo-3-phenyl-3,4-dihydroquinazolin-2-yl)pyrrolidin-1-yl)-6-methylpyrimidine-5-carbonitrile]	2300 nM	< 10 nM
Cc1nc(N)nc(N2C[C@@H](O)C[C@H]2c2nc3ccc(F)c(-c4cn(C)cn4)c3c(=O)n2-c2ccccc2)c1C#N [Example 31, 2-Amino-4-((2S,4S)-2-(6-fluoro-5-(1-methyl-1H-imidazol-4-yl)-4-oxo-3-phenyl-3,4-dihydroquinazolin-2-yl)-4-hydroxypyrrolidin-1-yl)-6-methylpyrimidine-5-carbonitrile]	> 10000 nM	120 nM
CCOc1ncc(-c2cccc3nc([C@@H]4CCCN4c4nc(N)nc(C)c4C#N)n(-c4ccccc4)c(=O)c23)cn1 [Example 32, (S)-2-Amino-4-(2-(5-(2-ethoxypyrimidin-5-yl)-4-oxo-3-phenyl-3,4-dihydroquinazolin-2-yl)pyrrolidin-1-yl)-6-methylpyrimidine-5-carbonitrile]	2400 nM	< 3 nM
N#Cc1c(N)ncnc1N1CCC[C@H]1c1nc2cccc(C#CCO)c2c(=O)n1-c1ccccc1 [Example 33, (S)-4-Amino-6-(2-(5-(3-hydroxyprop-1-yn-1-yl)-4-oxo-3-phenyl-3,4-dihydroquinazolin-2-yl)pyrrolidin-1-yl)pyrimidine-5-carbonitrile]	6500 nM	14 nM

Next, values leading:

IC50 [1]	IC50 [2]	Structure (SMILES)
1500 nM	< 3 nM	Cc1nc(N)nc(N2CCC[C@H]2c2nc3cccc(-c4cccnc4)c3c(=O)n2-c2ccccc2)c1C#N [Example 20, (S)-2-Amino-4-methyl-6-(2-(4-oxo-3-phenyl-5-(pyridin-3-yl)-3,4-dihydroquinazolin-2-yl)pyrrolidin-1-yl)pyrimidine-5-carbonitrile]
2500 nM	13 nM	COc1ccc(-c2cccc3nc([C@@H]4CCCN4c4nc(N)nc(C)c4C#N)n(-c4ccccc4)c(=O)c23)cn1 [Example 21, (S)-2-Amino-4-(2-(5-(6-methoxypyridin-3-yl)-4-oxo-3-phenyl-3,4-dihydroquinazolin-2-yl)pyrrolidin-1-yl)-6-methylpyrimidine-5-carbonitrile]
> 10000 nM	7 nM	COc1ncc(-c2cccc3nc([C@@H]4C[C@H](O)CN4c4nc(N)nc(C)c4C#N)n(-c4ccccc4)c(=O)c23)cn1 [Example 22, 2-Amino-4-((2S,4S)-4-hydroxy-2-(5-(2-methoxypyrimidin-5-yl)-4-oxo-3-phenyl-3,4-dihydroquinazolin-2-yl)pyrrolidin-1-yl)-6-methylpyrimidine-5-carbonitrile]
5000 nM	< 3 nM	Cc1nc(N)nc(N2C[C@@H](O)C[C@H]2c2nc3cccc(-c4cccnc4)c3c(=O)n2-c2ccccc2)c1C#N [Example 24, 2-Amino-4-((2S,4S)-4-hydroxy-2-(4-oxo-3-phenyl-5-(pyridin-3-yl)-3,4-dihydroquinazolin-2-yl)pyrrolidin-1-yl)-6-methylpyrimidine-5-carbonitrile]
1300 nM	6 nM	COc1ccc(-c2cccc3nc([C@@H]4C[C@H](O)CN4c4nc(N)nc(C)c4C#N)n(-c4ccccc4)c(=O)c23)cn1 [Example 27, 2-Amino-4-((2S,4S)-4-hydroxy-2-(5-(6-methoxypyridin-3-yl)-4-oxo-3-phenyl-3,4-dihydroquinazolin-2-yl)pyrrolidin-1-yl)-6-methylpyrimidine-5-carbonitrile]
> 10000 nM	90 nM	Cc1nc(N)nc(N2C[C@@H](O)C[C@H]2c2nc3cccc(-c4cnn(CCO)c4)c3c(=O)n2-c2ccccc2)c1C#N [Example 28, 2-Amino-4-((2S,4S)-4-hydroxy-2-(5-(1-(2-hydroxyethyl)-1H-pyrazol-4-yl)-4-oxo-3-phenyl-3,4-dihydroquinazolin-2-yl)pyrrolidin-1-yl)-6-methylpyrimidine-5-carbonitrile]
